Laboratory results: PubChem BioAssay AID624113 (National Center for Advancing Translational Sciences (NCATS), 2012)

Test system: mouse plasma stability, percent remaining
Test: qHTS Assay for Inhibitors of Bacillus subtilis Sfp phosphopantetheinyl transferase (PPTase): Mouse Plasma Stability
Details: stronger effect = higher value
Description: The covalent attachment of a phosphopantetheinyl (4'-PP) arm to a variety of synthases and other proteins is a key posttranslational protein modification. The 4'-PP is installed on the proteins post-translationally from coenzyme A (CoA) on a conserved serine residue by action of phosphopantetheinyl transferase (PPTase) enzymes. Phosphopantetheinylation is essential for synthase activity, and removal of the PPTase gene precludes natural product synthesis in microorganisms, or in the case of fatty acid biosynthesis, renders the organism unviable. PPTase enzymes belong to a distinct structural superfamily. Within bacteria, these enzymes are grouped into two classes based upon primary structure, the AcpS-Type and Sfp-Type PPTases.
Sfp-type PPTases, corresponding to an activator of surfactin production in Bacillus subtilis, are responsible for modifying type I polyketide and nonribosomal peptide synthases of prokaryotes. Sfp-type PPTases are responsible for the activation of a variety of pathogen-associated virulence factors. […]
5 uM of compound is incubated with mouse liver microsome; the reference compounds are verapamil and warfarin. Compounds are incubated and samples are analyzed with LC-MS/MS.

COc1ccnc(NC(=S)N2CCN(c3ncc(C(F)(F)F)cc3Cl)CC2)c1
percent remaining: 100%
